Laboratory results: PubChem BioAssay (NCI)
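The concentration for 50% growth inhibition is given as GI50. TGI: concentration producing complete growth inhibition.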

Experiments:
Assay in all cases: growth of human tumour cells (NCI), 384-well format
[1] = system: NCI-H322M lung
[2] = system: MDA-MB-435 melanoma
[3] = system: HCC-2998 colon
[4] = system: COLO 205 colon
[5] = system: UACC-257 melanoma
[6] = system: OVCAR-5 ovarian
[7] = system: HCT-15 colon
[8] = system: LOX IMVI melanoma
[9] = system: U251 glioblastoma
[10] = system: SF-295 CNS
[11] = system: 786-0 renal
[12] = system: SNB-75 CNS
[13] = system: ACHN renal
[14] = system: UACC-62 melanoma
[15] = system: T-47D breast
[16] = system: SR leukemia
[17] = system: SNB-19 CNS
[18] = system: SK-MEL-28 melanoma
[19] = system: RPMI-8226 leukemia
[20] = system: MOLT-4 leukemia
[21] = system: HT29 colon
[22] = system: KM12 colon
[23] = system: HOP-62 NSCLC
[24] = system: DU-145 prostate
[25] = system: HS 578T breast
[26] = system: A549 NSCLC
[27] = system: SK-MEL-5 melanoma
[28] = system: A498 renal
[29] = system: NCI-H226 lung
[30] = system: SK-OV-3 ovarian
[31] = system: M14 melanoma
[32] = system: MALME-3M melanoma
[33] = system: SF-539 CNS
[34] = system: SN12C renal
[35] = system: K-562 leukemia
[36] = system: RXF 393 renal
[37] = system: OVCAR-4 ovarian
[38] = system: HL-60(TB) leukemia
[39] = system: EKVX NSCLC
[40] = system: IGROV1 ovarian
[41] = system: TK-10 renal
[42] = system: UO-31 renal
[43] = system: PC-3 prostate
[44] = system: SW-620 colon
[45] = system: OVCAR-8 ovarian
[46] = system: MCF7 breast
[47] = system: MDA-MB-231 breast
[48] = system: NCI-H522 lung
[49] = system: CAKI-1 renal
[50] = system: SF-268 CNS
[51] = system: OVCAR-3 ovarian
[52] = system: NCI-H460 NSCLC
[53] = system: CCRF-CEM leukemia
[54] = system: HOP-92 NSCLC
[55] = system: BT-549 breast
[56] = system: NCI-H23 lung
[57] = system: MDA-MB-468 breast
[58] = system: NCI/ADR-RES ovarian

SMILES: CCN1C(=O)CCCc2c1ccc(Nc1ncc(Cl)c(NC3[C@@H](C(N)=O)[C@@H]4C=C[C@H]3C4)n1)c2OC (stereo partly specified)
- GI50 [1]: 1.9 µM
- TGI [1]: 5.61 µM
- GI50 [2]: 0.728 µM
- TGI [2]: 3.49 µM
- GI50 [3]: 1.68 µM
- TGI [3]: 3.07 µM
- GI50 [4]: 0.318 µM
- TGI [4]: 1.19 µM
- GI50 [5]: 0.677 µM
- TGI [5]: 2.15 µM
- GI50 [6]: 0.559 µM
- TGI [6]: 2.31 µM
- GI50 [7]: 0.288 µM
- TGI [7]: 1.21 µM
- GI50 [8]: 0.334 µM
- TGI [8]: 1.2 µM
- GI50 [9]: 0.632 µM
- TGI [9]: 10.9 µM
- GI50 [10]: 0.812 µM
- TGI [10]: 8.31 µM
- GI50 [11]: 0.624 µM
- TGI [11]: 2.33 µM
- GI50 [12]: 1.1 µM
- TGI [12]: 9.58 µM
- GI50 [13]: 1.2 µM
- TGI [13]: 7.31 µM
- GI50 [14]: 0.536 µM
- TGI [14]: 1.8 µM
- GI50 [15]: 1.07 µM
- TGI [15]: 4.24 µM
- GI50 [16]: 0.038 µM
- TGI [16]: 0.126 µM
- GI50 [17]: 1.38 µM
- TGI [17]: 7.13 µM
- GI50 [18]: 1.08 µM
- TGI [18]: 2.57 µM
- GI50 [19]: 0.226 µM
- TGI [19]: 0.501 µM
- GI50 [20]: 0.137 µM
- TGI [20]: 0.287 µM
- GI50 [21]: 0.45 µM
- TGI [21]: 2 µM
- GI50 [22]: 1.1 µM
- TGI [22]: 8.56 µM
- GI50 [23]: 0.644 µM
- TGI [23]: 2.99 µM
- GI50 [24]: 0.577 µM
- TGI [24]: 2.8 µM
- GI50 [25]: 0.437 µM
- TGI [25]: 1.67 µM
- GI50 [26]: 0.366 µM
- TGI [26]: 2.55 µM
- GI50 [27]: 0.578 µM
- TGI [27]: 1.95 µM
- GI50 [28]: 1.77 µM
- TGI [28]: 11.5 µM
- GI50 [29]: 1.13 µM
- TGI [29]: 4.42 µM
- GI50 [30]: 1.4 µM
- TGI [30]: 3.25 µM
- GI50 [31]: 0.499 µM
- TGI [31]: 1.7 µM
- GI50 [32]: 0.517 µM
- TGI [32]: 1.92 µM
- GI50 [33]: 0.475 µM
- TGI [33]: 1.78 µM
- GI50 [34]: 1.21 µM
- TGI [34]: 11.1 µM
- GI50 [35]: 0.722 µM
- TGI [35]: 11.6 µM
- GI50 [36]: 1.62 µM
- TGI [36]: 3.95 µM
- GI50 [37]: 1.1 µM
- TGI [37]: 2.7 µM
- GI50 [38]: 0.254 µM
- TGI [38]: 0.532 µM
- GI50 [39]: 0.927 µM
- TGI [39]: 3.26 µM
- GI50 [40]: 1.32 µM
- TGI [40]: 2.77 µM
- GI50 [41]: 1.3 µM
- TGI [41]: 3.75 µM
- GI50 [42]: 1.63 µM
- TGI [42]: 14.3 µM
- GI50 [43]: 1.24 µM
- TGI [43]: 3.81 µM
- GI50 [44]: 0.434 µM
- TGI [44]: 1.72 µM
- GI50 [45]: 0.349 µM
- TGI [45]: 1.22 µM
- GI50 [46]: 0.562 µM
- TGI [46]: 2.34 µM
- GI50 [47]: 0.726 µM
- TGI [47]: 4.4 µM
- GI50 [48]: 0.385 µM
- TGI [48]: 1.31 µM
- GI50 [49]: 1.23 µM
- TGI [49]: 4.5 µM
- GI50 [50]: 1.22 µM
- TGI [50]: 4.35 µM
- GI50 [51]: 1.02 µM
- TGI [51]: 2.77 µM
- GI50 [52]: 0.355 µM
- TGI [52]: 9.12 µM
- GI50 [53]: 0.22 µM
- TGI [53]: 0.402 µM
- GI50 [54]: 0.665 µM
- TGI [54]: 3.99 µM
- GI50 [55]: 0.509 µM
- TGI [55]: 1.88 µM
- GI50 [56]: 0.43 µM
- TGI [56]: 1.62 µM
- GI50 [57]: 0.365 µM
- TGI [57]: 0.912 µM
- GI50 [58]: 1.07 µM
- TGI [58]: 2.4 µM
